The target in experiment [1] is human GLP-1 receptor (GLP-1R) (Homo sapiens, UniProt P43220). Nature of the experiment: cAMP pharmacological functional assay in presence of casein, hGLP-1R. The format is cell-based. As to conditions: HEK293 cells expressing hGLP-1R, 0.1% Casein, geometric mean; read-out: hGLP1R cAMP Rel EC50 nM (SEM, n).
Experiment [2] addresses T1, gastric inhibitory peptide receptor (GIPR) (Homo sapiens, UniProt P48546).
T1 sequence (P48546 22-466): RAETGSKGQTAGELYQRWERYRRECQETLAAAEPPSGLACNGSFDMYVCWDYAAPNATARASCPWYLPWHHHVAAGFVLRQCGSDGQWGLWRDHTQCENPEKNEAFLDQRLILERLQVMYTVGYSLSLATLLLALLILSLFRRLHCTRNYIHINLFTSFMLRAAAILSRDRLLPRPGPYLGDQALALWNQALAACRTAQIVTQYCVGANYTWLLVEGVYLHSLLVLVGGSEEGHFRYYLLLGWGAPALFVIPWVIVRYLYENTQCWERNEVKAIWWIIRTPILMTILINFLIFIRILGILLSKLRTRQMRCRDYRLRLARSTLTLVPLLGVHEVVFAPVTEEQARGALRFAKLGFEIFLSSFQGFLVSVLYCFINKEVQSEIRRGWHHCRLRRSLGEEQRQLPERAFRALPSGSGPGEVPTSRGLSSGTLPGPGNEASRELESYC
Nature of the experiment: cAMP pharmacological functional assay in presence of casein, hGIPR. It is filed as cell-based. As to conditions: HEK293 cells expressing hGIPR, 0.1% Casein, geometric mean; read-out: hGIPR cAMP Rel EC50 nM (SEM, n).

EC50 data for 5 compounds are collected here from patent US12252524B2, “GIP/GLP1 co-agonist compounds” (Eli Lilly and Company, priority 2018, dated 2025).

Numbered stars: 1 amine (or outer) side, 2 acyl side, 3 side chain; on linkers, the order of the positions; unused ones are H or OH. Square brackets hold non-standard residues; d marks the D form. Side chains are listed from the residue outwards. Peptide text beside a SMILES is read from it. * marks the point of attachment. C20 diacid = O=C(O)CCCCCCCCCCCCCCCCCCC(=O)*; C18 diacid = O=C(O)CCCCCCCCCCCCCCCCC(=O)*; γGlu = O=C(O)[C@H](CCC(=O)[*:2])N[*:1]; Desaminohistidyl = O=C(CCc1c[nH]cn1)*; Desaminotyrosyl = O=C(CCc1ccc(O)cc1)*; αMeP = C[C@@]1(C(=O)O)CCCN1; AEEA = NCCOCCOCC(=O)O; Aib = CC(C)(N)C(=O)O A value given as a limit tells only on which side of the number the result lay.

Chain of human GLP-1 receptor (GLP-1R) (P43220 24-463): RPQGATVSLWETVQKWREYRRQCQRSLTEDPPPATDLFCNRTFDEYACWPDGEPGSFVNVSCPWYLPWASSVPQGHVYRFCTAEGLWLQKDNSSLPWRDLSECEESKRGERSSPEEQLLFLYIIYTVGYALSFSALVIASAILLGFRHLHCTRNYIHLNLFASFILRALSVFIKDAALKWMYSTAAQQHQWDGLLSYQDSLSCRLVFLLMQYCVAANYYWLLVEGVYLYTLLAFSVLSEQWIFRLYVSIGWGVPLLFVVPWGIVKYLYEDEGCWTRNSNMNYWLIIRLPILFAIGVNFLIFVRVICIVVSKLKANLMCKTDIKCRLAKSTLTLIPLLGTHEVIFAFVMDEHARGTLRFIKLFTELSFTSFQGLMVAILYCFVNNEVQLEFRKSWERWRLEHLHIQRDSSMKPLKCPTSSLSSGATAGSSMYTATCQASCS

A word on the EC50: it is the concentration needed to bring the measured effect to its halfway point. As to `CC[C@H](C)[C@H](NC(=O)[C@H](CC(C)C)NC(=O)[C@H](Cc1ccc(O)cc1)NC(=O)[C@H](CCC(=O)O)NC(=O)[C@@H](NC(=O)[C@H](Cc1ccccc1)NC(=O)[C@H](C)NC(=O)[C@H](Cc1c[nH]cn1)NC(=O)[C@H](CCC(N)=O)NC(=O)[C@H](C)NC(=O)[C@H](CCCCNC(=O)COCCOCCNC(=O)COCCOCCNC(=O)CC[C@H](NC(=O)CCCCCCCCCCCCCCCCCCC(=O)O)C(=O)O)NC(=O)[C@H](CCCNC(=N)N)NC(=O)[C@H](CC(=O)O)NC(=O)[C@H](CC(C)C)NC(=O)[C@H](CC(C)C)NC(=O)[C@@H](NC(=O)[C@H](CO)NC(=O)[C@H](Cc1ccc(O)cc1)NC(=O)[C@H](CC(=O)O)NC(=O)[C@H](CO)NC(=O)[C@@H](NC(=O)[C@H](Cc1ccccc1)NC(=O)[C@@H](NC(=O)CNC(=O)[C@H](CCC(=O)O)NC(=O)[C@]1(C)CCCN1C(=O)[C@@H](N)Cc1ccc(O)cc1)[C@@H](C)O)[C@@H](C)O)[C@@H](C)CC)[C@@H](C)CC)C(=O)N[C@@H](CCC(=O)O)C(=O)NCC(=O)NCC(=O)N1CCC[C@H]1C(=O)N[C@@H](CO)C(=O)N[C@@H](CO)C(=O)NCC(=O)N[C@@H](C)C(=O)N1CCC[C@H]1C(=O)N1CCC[C@H]1C(=O)N1CCC[C@H]1C(=O)N[C@@H](CO)C(N)=O` [Example 196] (H-Y[αMeP]EGTFTSDYSILLDRK([AEEA-AEEA-γGlu-C20 diacid])AQHAFIEYLIEGGPSSGAPPPS-NH2), the EC50 in experiment [1] amounted to 0.175 nM; in experiment [2] it was 0.277 nM.
With `CC[C@H](C)[C@H](NC(=O)[C@H](CC(C)C)NC(=O)[C@H](Cc1ccc(O)cc1)NC(=O)[C@H](CCC(=O)O)NC(=O)[C@@H](NC(=O)[C@H](Cc1ccccc1)NC(=O)[C@H](C)NC(=O)[C@H](CCC(N)=O)NC(=O)[C@H](CCC(N)=O)NC(=O)[C@H](C)NC(=O)[C@H](CCCCNC(=O)COCCOCCNC(=O)COCCOCCNC(=O)CC[C@H](NC(=O)CCCCCCCCCCCCCCCCC(=O)O)C(=O)O)NC(=O)[C@H](CCC(=O)O)NC(=O)[C@H](CC(=O)O)NC(=O)[C@H](CC(C)C)NC(=O)[C@H](CC(C)C)NC(=O)[C@@H](NC(=O)[C@H](CO)NC(=O)[C@H](Cc1ccc(O)cc1)NC(=O)[C@H](CC(=O)O)NC(=O)[C@H](CO)NC(=O)[C@@H](NC(=O)[C@H](Cc1ccccc1)NC(=O)[C@@H](NC(=O)CNC(=O)[C@H](CCC(=O)O)NC(=O)[C@]1(C)CCCN1C(=O)[C@@H](N)Cc1ccc(O)cc1)[C@@H](C)O)[C@@H](C)O)[C@@H](C)CC)[C@@H](C)CC)C(=O)N[C@@H](CCC(=O)O)C(=O)NCC(=O)NCC(=O)N1CCC[C@H]1C(=O)N[C@@H](CO)C(=O)N[C@@H](CO)C(=O)NCC(N)=O` [Example 197] (H-Y[αMeP]EGTFTSDYSILLDEK([AEEA-AEEA-γGlu-C18 diacid])AQQAFIEYLIEGGPSSG-NH2), the values for the EC50 in experiment [1] and in experiment [2] were 0.248 nM and 0.211 nM, respectively.
For `CC[C@H](C)[C@H](NC(=O)[C@H](CC(C)C)NC(=O)[C@H](Cc1ccc(O)cc1)NC(=O)[C@H](CCC(=O)O)NC(=O)[C@@H](NC(=O)[C@H](Cc1ccccc1)NC(=O)[C@H](C)NC(=O)[C@H](CCC(N)=O)NC(=O)[C@H](CCC(N)=O)NC(=O)[C@H](C)NC(=O)[C@H](CCCCNC(=O)COCCOCCNC(=O)COCCOCCNC(=O)CC[C@H](NC(=O)CCCCCCCCCCCCCCCCC(=O)O)C(=O)O)NC(=O)[C@H](CCC(=O)O)NC(=O)[C@H](CC(=O)O)NC(=O)[C@H](CC(C)C)NC(=O)[C@H](CC(C)C)NC(=O)[C@@H](NC(=O)[C@H](CO)NC(=O)[C@H](Cc1ccc(O)cc1)NC(=O)[C@H](CC(=O)O)NC(=O)[C@H](CO)NC(=O)[C@@H](NC(=O)[C@H](Cc1ccccc1)NC(=O)[C@@H](NC(=O)CNC(=O)[C@H](CCC(=O)O)NC(=O)[C@]1(C)CCCN1C(=O)[C@H](N)Cc1ccc(O)cc1)[C@@H](C)O)[C@@H](C)O)[C@@H](C)CC)[C@@H](C)CC)C(=O)N[C@@H](CCC(=O)O)C(=O)NCC(=O)NCC(=O)N1CCC[C@H]1C(=O)N[C@@H](CO)C(=O)N[C@@H](CO)C(=O)NCC(N)=O` [Example 198] (H-[dY][αMeP]EGTFTSDYSILLDEK([AEEA-AEEA-γGlu-C18 diacid])AQQAFIEYLIEGGPSSG-NH2), the EC50 was 0.139 nM in experiment [1] and greater than 30 nM in experiment [2].
On to `CC[C@H](C)[C@H](NC(=O)[C@H](CC(C)C)NC(=O)[C@H](Cc1ccc(O)cc1)NC(=O)[C@H](CCC(=O)O)NC(=O)[C@@H](NC(=O)[C@H](Cc1ccccc1)NC(=O)[C@H](C)NC(=O)[C@H](CCC(N)=O)NC(=O)[C@H](CCC(N)=O)NC(=O)[C@H](C)NC(=O)[C@H](CCCCNC(=O)COCCOCCNC(=O)COCCOCCNC(=O)CC[C@H](NC(=O)CCCCCCCCCCCCCCCCCCC(=O)O)C(=O)O)NC(=O)[C@H](CCC(=O)O)NC(=O)[C@H](CC(=O)O)NC(=O)[C@H](CC(C)C)NC(=O)[C@H](CC(C)C)NC(=O)[C@@H](NC(=O)[C@H](CO)NC(=O)[C@H](Cc1ccc(O)cc1)NC(=O)[C@H](CC(=O)O)NC(=O)[C@H](CO)NC(=O)[C@@H](NC(=O)[C@H](Cc1ccccc1)NC(=O)[C@@H](NC(=O)CNC(=O)[C@H](CCC(=O)O)NC(=O)C(C)(C)NC(=O)CCc1ccc(O)cc1)[C@@H](C)O)[C@@H](C)O)[C@@H](C)CC)[C@@H](C)CC)C(=O)N[C@@H](CCC(=O)O)C(=O)NCC(=O)NCC(=O)N1CCC[C@H]1C(=O)N[C@@H](CO)C(=O)N[C@@H](CO)C(=O)NCC(=O)N[C@@H](C)C(=O)N1CCC[C@H]1C(=O)N1CCC[C@H]1C(=O)N1CCC[C@H]1C(=O)N[C@@H](CO)C(N)=O` [Example 199] (Desaminotyrosyl-[Aib]EGTFTSDYSILLDEK([AEEA-AEEA-γGlu-C20 diacid])AQQAFIEYLIEGGPSSGAPPPS-NH2), for which the concentration giving a half-maximal response (EC50) is 0.0422 nM in experiment [1] and greater than 30 nM in experiment [2].
Taken in the same sequence, the figures for `CC[C@H](C)[C@H](NC(=O)[C@H](CC(C)C)NC(=O)[C@H](Cc1ccc(O)cc1)NC(=O)[C@H](CCC(=O)O)NC(=O)[C@@H](NC(=O)[C@H](Cc1ccccc1)NC(=O)[C@H](C)NC(=O)[C@H](CCC(N)=O)NC(=O)[C@H](CCC(N)=O)NC(=O)[C@H](C)NC(=O)[C@H](CCCCNC(=O)COCCOCCNC(=O)COCCOCCNC(=O)CC[C@H](NC(=O)CCCCCCCCCCCCCCCCCCC(=O)O)C(=O)O)NC(=O)[C@H](CCC(=O)O)NC(=O)[C@H](CC(=O)O)NC(=O)[C@H](CC(C)C)NC(=O)[C@H](CC(C)C)NC(=O)[C@@H](NC(=O)[C@H](CO)NC(=O)[C@H](Cc1ccc(O)cc1)NC(=O)[C@H](CC(=O)O)NC(=O)[C@H](CO)NC(=O)[C@@H](NC(=O)[C@H](Cc1ccccc1)NC(=O)[C@@H](NC(=O)CNC(=O)[C@H](CCC(=O)O)NC(=O)[C@]1(C)CCCN1C(=O)CCc1c[nH]cn1)[C@@H](C)O)[C@@H](C)O)[C@@H](C)CC)[C@@H](C)CC)C(=O)N[C@@H](CCC(=O)O)C(=O)NCC(=O)NCC(=O)N1CCC[C@H]1C(=O)N[C@@H](CO)C(=O)N[C@@H](CO)C(=O)NCC(=O)N[C@@H](C)C(=O)N1CCC[C@H]1C(=O)N1CCC[C@H]1C(=O)N1CCC[C@H]1C(=O)N[C@@H](CO)C(N)=O` [Example 201] (Desaminohistidyl-[αMeP]EGTFTSDYSILLDEK([AEEA-AEEA-γGlu-C20 diacid])AQQAFIEYLIEGGPSSGAPPPS-NH2) were 0.0385 nM and greater than 30 nM.
